Results taken from PubChem BioAssay (NCI).
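48-hour exposure; five concentrations; linearly interpolated endpoints. Abbreviation: GI50, concentration required for 50% inhibition of growth. TGI is the concentration that stops growth completely.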

What was measured:
Assay in all cases: NCI-60 cell line screen, 48 h
SNB-78 CNS = tested on: SNB-78 CNS
M19-MEL melanoma = tested on: M19-MEL melanoma
DLD-1 colon = tested on: DLD-1 colon
SK-MEL-2 melanoma = tested on: SK-MEL-2 melanoma
NCI-H226 lung = tested on: NCI-H226 lung
RPMI-8226 leukemia = tested on: RPMI-8226 leukemia
HOP-18 NSCLC = tested on: HOP-18 NSCLC
HS 578T breast = tested on: HS 578T breast
ACHN renal = tested on: ACHN renal
MDA-N = tested on: MDA-N
TK-10 renal = tested on: TK-10 renal
T-47D breast = tested on: T-47D breast
LXFL 529 NSCLC = tested on: LXFL 529 NSCLC

| SMILES | TGI (SNB-78 CNS) [µM] | TGI (M19-MEL melanoma) [µM] | TGI (DLD-1 colon) [µM] | TGI (SK-MEL-2 melanoma) [µM] | TGI (NCI-H226 lung) [µM] | TGI (RPMI-8226 leukemia) [µM] | TGI (HOP-18 NSCLC) [µM] | TGI (HS 578T breast) [µM] | TGI (ACHN renal) [µM] | TGI (MDA-N) [µM] | TGI (TK-10 renal) [µM] | TGI (T-47D breast) [µM] | GI50 (T-47D breast) [µM] | GI50 (HS 578T breast) [µM] | GI50 (SK-MEL-2 melanoma) [µM] | GI50 (NCI-H226 lung) [µM] | GI50 (ACHN renal) [µM] | GI50 (RPMI-8226 leukemia) [µM] | GI50 (TK-10 renal) [µM] | TGI (LXFL 529 NSCLC) [µM] |
| --- | --- | --- | --- | --- | --- | --- | --- | --- | --- | --- | --- | --- | --- | --- | --- | --- | --- | --- | --- | --- |
| O=C1CNC(=O)N1 | > 1120 | > 1120 | > 1120 | > 1120 | > 1120 | > 1120 | > 1120 | – | – | – | – | – | – | – | – | – | – | – | – | – |
| Cc1cc(C)c(S(=O)(=O)N(CCCCCCN)OCCCON(CCCCCCN)S(=O)(=O)c2c(C)cc(C)cc2C)c(C)c1 | – | – | – | 3.48 | – | – | – | 4.32 | 13.1 | 3.61 | 3.07 | – | – | – | – | – | – | – | – | – |
| CCOC(=O)c1csc(NC(=O)CCN2CCOCC2)n1 | – | – | – | > 100 | – | > 100 | – | – | > 100 | > 100 | > 100 | > 100 | – | – | – | – | – | – | – | – |
| Fc1cc(C2=Nn3c(nnc3-c3cc(F)c(Cl)cc3Cl)SC2)c(Cl)cc1Cl | – | – | – | > 100 | 36 | 35 | – | 55 | 90.9 | – | > 100 | 32.5 | 4.93 | 21.9 | 65.3 | 14.9 | 26.6 | 6 | 37.4 | – |
| O=c1n(Cc2ccccc2)c2ccccc2n1CC1CS1 (configuration not stated) | – | > 100 | – | > 100 | > 100 | > 100 | – | – | > 100 | – | > 100 | – | – | – | – | – | – | – | – | > 100 |
| CC1(C)CCCC2(C)[C@@H]1CC[C@]13C[C@](C)(CC[C@@H]21)[C@@H]3CO (some centres not stated) | > 100 | > 100 | > 100 | – | > 100 | > 100 | – | – | > 100 | – | > 100 | – | – | – | – | – | – | – | – | > 100 |
